Results taken from the NIST ThermoML archive (doi:10.1016/j.fluid.2018.05.032).
Where “and” joins values, the source holds several entries; their conditions need not be identical. Equal entries are not always repeated.

What was measured:
[1] = for vapor or sublimation pressure: Closed cell (Static) method; for Normal melting temperature: DTA
[2] = Molar enthalpy of transition or fusion; details: Crystal; DSC
[3] = molar heat capacity at constant pressure; details: 101.33 kPa, DSC

CCNCCO [2-(ethylamino)ethanol]
Details | molar heat capacity at constant pressure [J/K/mol] | vapor or sublimation pressure
[1], 238.05 K, Crystal | – | 5e-05 kPa and 4.9e-05 kPa and 4.8e-05 kPa
[1], 243.07 K, Crystal | – | 0.000113 kPa and 0.000112 kPa
[1], 243.07 K, Metastable liquid | – | 0.000222 kPa and 0.000223 kPa and 0.000221 kPa
[1], 248.11 K, Metastable liquid | – | 0.000424 kPa and 0.000423 kPa
[1], 248.13 K, Crystal | – | 0.000251 kPa and 0.000252 kPa
[1], 248.14 K, Crystal | – | 0.000253 kPa
[1], 253.13 K, Crystal | – | 0.000545 kPa and 0.000544 kPa and 0.000546 kPa
[1], 253.13 K, Metastable liquid | – | 0.000783 kPa and 0.000784 kPa and 0.000781 kPa
[1], 258.13 K, Crystal | – | 0.001146 kPa
[1], 258.13 K, Metastable liquid | – | 0.001403 kPa and 0.001401 kPa
[1], 258.14 K, Crystal | – | 0.001142 kPa and 0.001139 kPa
[1], 258.14 K, Metastable liquid | – | 0.001403 kPa
[1], 263.13 K, Metastable liquid | – | 0.002453 kPa
[1], 263.14 K, Crystal | – | 0.002334 kPa and 0.002326 kPa and 0.00232 kPa
[1], 263.14 K, Metastable liquid | – | 0.002454 kPa
[1], 268.14 K, Liquid | – | 0.004201 kPa and 0.004205 kPa and 0.004206 kPa
[1], 273.14 K, Liquid | – | 0.007045 kPa and 0.007039 kPa and 0.007052 kPa
[1], 278.14 K, Liquid | – | 0.01158 kPa
[1], 283.14 K, Liquid | – | 0.01862 kPa and 0.01863 kPa
[1], 288.14 K, Liquid | – | 0.02935 kPa and 0.02936 kPa and 0.02934 kPa
[1], 293.13 K, Liquid | – | 0.04545 kPa and 0.04543 kPa
[1], 298.14 K, Liquid | – | 0.06913 kPa and 0.06915 kPa
[1], 303.13 K, Liquid | – | 0.1034 kPa
[1], 303.14 K, Liquid | – | 0.1035 kPa
[1], 308.14 K, Liquid | – | 0.1525 kPa
[3], 265 K, Liquid | 215.4 | –
[3], 270 K, Liquid | 217.1 | –
[3], 275 K, Liquid | 218.8 | –
[3], 280 K, Liquid | 220.3 | –
[3], 285 K, Liquid | 222 | –
[3], 290 K, Liquid | 223.6 | –
[3], 295 K, Liquid | 225.5 | –
[3], 300 K, Liquid | 227.7 | –
[3], 305 K, Liquid | 229.9 | –
[3], 310 K, Liquid | 232.1 | –
[3], 315 K, Liquid | 234.6 | –
[3], 320 K, Liquid | 237 | –
[3], 325 K, Liquid | 239.5 | –
[3], 330 K, Liquid | 242 | –
[3], 335 K, Liquid | 244.4 | –
[3], 340 K, Liquid | 247 | –
[3], 345 K, Liquid | 249.9 | –
[3], 350 K, Liquid | 252.9 | –
[3], 355 K, Liquid | 255.9 | –

Details | Normal melting temperature [°C]
[1], Crystal | -9.2

Details | Molar enthalpy of transition or fusion [kJ/mol]
[2] | 16.5

CC(C)NCCO [2-isopropylaminoethanol]
Details | molar heat capacity at constant pressure [J/K/mol] | vapor or sublimation pressure
[1], 248.13 K, Metastable liquid | – | 0.000252 kPa and 0.000251 kPa
[1], 253.14 K, Metastable liquid | – | 0.000472 kPa
[1], 253.15 K, Crystal | – | 0.000258 kPa and 0.000257 kPa and 0.000254 kPa
[1], 253.15 K, Metastable liquid | – | 0.000471 kPa and 0.000472 kPa
[1], 258.14 K, Crystal | – | 0.000482 kPa and 0.00048 kPa and 0.000479 kPa
[1], 258.15 K, Metastable liquid | – | 0.000864 kPa
[1], 263.15 K, Crystal | – | 0.000926 kPa and 0.000923 kPa and 0.000921 kPa
[1], 263.15 K, Metastable liquid | – | 0.001546 kPa and 0.001544 kPa
[1], 268.14 K, Crystal | – | 0.00171 kPa and 0.001709 kPa
[1], 268.14 K, Metastable liquid | – | 0.002688 kPa
[1], 273.14 K, Crystal | – | 0.00318 kPa and 0.003182 kPa and 0.003174 kPa
[1], 273.14 K, Metastable liquid | – | 0.004591 kPa
[1], 273.15 K, Metastable liquid | – | 0.004589 kPa and 0.00459 kPa
[1], 278.14 K, Crystal | – | 0.005875 kPa and 0.005872 kPa and 0.00587 kPa
[1], 278.14 K, Metastable liquid | – | 0.007669 kPa and 0.007676 kPa and 0.007665 kPa
[1], 283.14 K, Crystal | – | 0.01065 kPa and 0.01066 kPa and 0.01068 kPa
[1], 283.14 K, Metastable liquid | – | 0.01257 kPa
[1], 288.14 K, Crystal | – | 0.01909 kPa and 0.01911 kPa
[1], 288.15 K, Crystal | – | 0.0191 kPa
[1], 288.15 K, Metastable liquid | – | 0.0202 kPa
[1], 293.14 K, Liquid | – | 0.03179 kPa
[1], 298.11 K, Liquid | – | 0.04899 kPa
[1], 298.12 K, Liquid | – | 0.0492 kPa
[1], 298.14 K, Liquid | – | 0.04914 kPa and 0.04915 kPa
[1], 298.17 K, Liquid | – | 0.04928 kPa
[1], 303.04 K, Liquid | – | 0.07439 kPa and 0.0744 kPa and 0.07435 kPa
[1], 303.14 K, Liquid | – | 0.0747 kPa and 0.07469 kPa and 0.07473 kPa
[1], 308.01 K, Liquid | – | 0.1111 kPa
[1], 308.03 K, Liquid | – | 0.1112 kPa
[1], 308.04 K, Liquid | – | 0.1112 kPa
[1], 308.14 K, Liquid | – | 0.1119 kPa
[1], 308.15 K, Liquid | – | 0.1119 kPa and 0.1118 kPa
[1], 313 K, Liquid | – | 0.164 kPa
[1], 313.01 K, Liquid | – | 0.1642 kPa
[1], 317.9 K, Liquid | – | 0.2372 kPa and 0.2373 kPa
[1], 322.97 K, Liquid | – | 0.3405 kPa
[1], 322.98 K, Liquid | – | 0.3407 kPa
[1], 327.95 K, Liquid | – | 0.4814 kPa and 0.4815 kPa
[1], 332.99 K, Liquid | – | 0.6731 kPa and 0.6728 kPa
[1], 337.93 K, Liquid | – | 0.9221 kPa and 0.9223 kPa
[1], 342.94 K, Liquid | – | 1.257 kPa
[3], 265 K, Metastable liquid | 240.4 | –
[3], 270 K, Metastable liquid | 243.1 | –
[3], 275 K, Metastable liquid | 245.8 | –
[3], 280 K, Metastable liquid | 248.5 | –
[3], 285 K, Metastable liquid | 251 | –
[3], 290 K, Liquid | 253.8 | –
[3], 295 K, Liquid | 256.9 | –
[3], 300 K, Liquid | 260.1 | –
[3], 305 K, Liquid | 263.3 | –
[3], 310 K, Liquid | 266.6 | –
[3], 315 K, Liquid | 270.1 | –
[3], 320 K, Liquid | 273.5 | –
[3], 325 K, Liquid | 277.2 | –
[3], 330 K, Liquid | 280.7 | –
[3], 335 K, Liquid | 284.3 | –
[3], 340 K, Liquid | 287.7 | –
[3], 345 K, Liquid | 291.1 | –
[3], 350 K, Liquid | 294.9 | –
[3], 355 K, Liquid | 298.5 | –

Details | Normal melting temperature [°C]
[1], Crystal | 16

Details | Molar enthalpy of transition or fusion [kJ/mol]
[2] | 19

CCN(CC)CCO [(diethylamino)ethanol]
Liquid
Details | molar heat capacity at constant pressure [J/K/mol] | vapor or sublimation pressure
[1], 273.64 K | – | 0.03488 kPa and 0.0349 kPa and 0.03489 kPa
[1], 278.14 K | – | 0.05131 kPa and 0.05133 kPa
[1], 278.15 K | – | 0.05134 kPa
[1], 283.14 K | – | 0.07733 kPa
[1], 283.15 K | – | 0.07737 kPa
[1], 288.15 K | – | 0.1146 kPa
[1], 293.14 K | – | 0.167 kPa and 0.1669 kPa
[1], 298.15 K | – | 0.2393 kPa
[1], 303.14 K | – | 0.3378 kPa and 0.3379 kPa
[1], 303.15 K | – | 0.338 kPa
[1], 308.15 K | – | 0.4708 kPa and 0.4709 kPa
[3], 265 K | 260.6 | –
[3], 270 K | 263.9 | –
[3], 275 K | 267.1 | –
[3], 280 K | 270 | –
[3], 285 K | 272.8 | –
[3], 290 K | 275.6 | –
[3], 295 K | 278.7 | –
[3], 300 K | 281.8 | –
[3], 305 K | 284.7 | –
[3], 310 K | 287.6 | –
[3], 315 K | 290.5 | –
[3], 320 K | 293.2 | –
[3], 325 K | 295.8 | –
[3], 330 K | 298.2 | –
[3], 335 K | 300.4 | –
[3], 340 K | 302.7 | –
[3], 345 K | 305.1 | –
[3], 350 K | 307.7 | –
[3], 355 K | 309.9 | –
